Laboratory results from patent publication US12225917B2 (priority 2017, dated 2025).

Legend:
E. coli causing scour = assay: In vitro MIC against pig disease strains incl. scour-inducing E. coli (Example 5); type: cell-based; details: Escherichia coli
[1] = tested on: Eimeria acervulina, E. maxima, and E. tenella; assay: Anticoccidial efficacy/sensitivity cage study (Example 9): lesion scores, oocysts per gram fecal material, coccidiosis mortality; details: for % Cocci Mort.: Day 0-20, infected
Clostridium Difficile = assay: In vitro MIC and MBC against Clostridium difficile (Example 6); type: cell-based; details: Clostridioides difficile, clinical isolate of C. difficile; test agent Berberine sulfate
[2] = Tissue residue study by LC-MS/MS after in-feed administration (Example 7): muscle and liver; details: for Mean residue, Breast / Mean residue, Lower leg / Mean residue, Upper leg / Mean residue IRP001, Liver: n = 3
Clostridium Perfringens = assay: microbe, parasite or virus in culture
[3] = General safety in broilers reared to market weight by histology (Example 8); type: in vivo, broiler chickens
From the text: This study evaluates the safety of IRP001 chloride in broilers through examination of histology.
The objective of this study was to test the general safety of IRP001 chloride in broilers reared to market weight by examination of histology.
The experiment consisted of the following treatments (1 pen per treatment, Table 54).
Birds were kept in a pen having an area of 4×10=40 ft^2, with clean wood shavings as bedding with a thickness of approximately 4 inches. The pen had 5 feet high side walls with a bottom 1 ½ feet being of solid wood to prevent bird migration.
The temperature of the building was monitored. Environmental conditions during the trial (temperature) were appropriate (optimum) to the age of the animals. Illumination was provided by fluorescent bulbs placed above the pens. The diets were provided ad libitum in one tube-type feeder per pen. From D0 until D7, feed was also supplied on a tray placed on the litter of each pen. Water was provided ad libitum from one Plasson drinker per pen.
Standard floor pen management practices were used throughout the experiment. Animals and housing facilities were inspected twice daily, observing and recording the general health status, constant feed and water supply as well as temperature, removing all dead birds, and recognizing unexpected events. Birds found dead during the study were noted on the Daily Mortality Record, and were not replaced. Pen number, the date of mortality, sex, weight, and diagnosis were recorded.
Day of hatch male Cobb chicks were obtained and ten male broiler chicks were placed in each pen. Accountabilities of all test animals and any extra birds were recorded on animal disposition form. The birds were sexed at the hatchery. The breeder flock history and vaccination record at the hatchery were recorded. Bird weights by pen were recorded on D0 and 42.
All weights were by pen. Treatment Starter feed was fed from D0 to 21. On D21, non-consumed Starter was weighed by pen and discarded. Grower feed was issued and fed until D35. On D35, non-consumed Grower was weighed by pen and discarded. Finisher feed was fed until D42. On D42, non-consumed Finisher was weighed by pen and discarded.
On the day of study completion (D42), five birds from each pen were humanly euthanized and upper, mid and lower gut sections plus liver lobe were collected and stored in neutral buffered formalin. Theses samples were shipped for analysis.

[4] = Group 1, 0.03 g/kg IRP001 in feed (0-35 days), 0 days of washout
[5] = Group 2, 0.03 g/kg IRP001 in feed (0-35 days), 1 day of washout
[6] = Group 3, 0.03 g/kg IRP001 in feed (0-35 days), 2 days of washout
[7] = Group 4, 0.03 g/kg IRP001 in feed (0-35 days), 4 days of washout
[8] = Group 5, 0.03 g/kg IRP001 in feed (0-35 days), 7 days of washout
[9] = Group 6, 0.03 g/kg IRP001 in feed (0-28 days), 14 days of washout
[10] = Group 11, 0.3 g/kg IRP001 in feed (0-35 days), 7 days of washout
[11] = Group 12, 0.3 g/kg IRP001 in feed (0-28 days), 14 days of washout
[12] = IRP001 0.05 g/kg in feed, pen 2

COc1ccc2cc3[n+](cc2c1OC)CCc1cc2c(cc1-3)OCO2 [Berberine, berberine]
MIC (E. coli causing scour): 125 µg/mL | % Cocci Mort. ([1]; IRP001 0.03 g/kg): 0.0b % | % Cocci Mort. ([1]; IRP001 0.10 g/kg): 0.0b % | Lesion Scores Average ([1]; IRP001 0.03 g/kg): 1.8b | Lesion Scores E. acer. ([1]; IRP001 0.03 g/kg): 2.3b | Lesion Scores E. maxima ([1]; IRP001 0.03 g/kg): 1.8bc | Lesion Scores E. tenella ([1]; IRP001 0.03 g/kg): 1.2ab | Lesion Scores Average ([1]; IRP001 0.10 g/kg): 1.5bc | Lesion Scores E. acer. ([1]; IRP001 0.10 g/kg): 2.1bc | Lesion Scores E. maxima ([1]; IRP001 0.10 g/kg): 1.5bcd | Lesion Scores E. tenella ([1]; IRP001 0.10 g/kg): 0.8bcd | MBC (Clostridium Difficile): 1000 µg/mL | residue level in liver ([2]; 0.03 g/kg feed, before and after washout): below the limit of detection | mean residue level in muscle tissues ([2]; 0.03 g/kg feed, with or without washout): not detectable | residue level in muscle tissues (breast, lower leg, upper leg) ([2]; 0.3 g/kg feed, after 4 days washout, listed as IRP001): below the LLOD | residue level in liver ([2]; 0.3 g/kg feed, after a 14-day washout): below the limit of quantitation | Mean residue, Breast [2, 4]: <LLOD (outputs indicating values lower than 2 ng/g are considered to be within baseline noise, below the LLOD, and as such are not detectable) | Mean residue, Lower leg [2, 4]: <LLOD (outputs indicating values lower than 2 ng/g are considered to be within baseline noise, below the LLOD, and as such are not detectable) | Mean residue, Upper leg [2, 4]: <LLOD (outputs indicating values lower than 2 ng/g are considered to be within baseline noise, below the LLOD, and as such are not detectable) | Mean residue, Breast [2, 5]: <LLOD (outputs indicating values lower than 2 ng/g are considered to be within baseline noise, below the LLOD, and as such are not detectable) | Mean residue, Lower leg [2, 5]: <LLOD (outputs indicating values lower than 2 ng/g are considered to be within baseline noise, below the LLOD, and as such are not detectable) | Mean residue, Upper leg [2, 5]: <LLOD (outputs indicating values lower than 2 ng/g are considered to be within baseline noise, below the LLOD, and as such are not detectable) | Mean residue, Breast [2, 6]: <LLOD (outputs indicating values lower than 2 ng/g are considered to be within baseline noise, below the LLOD, and as such are not detectable) | Mean residue, Lower leg [2, 6]: <LLOD (outputs indicating values lower than 2 ng/g are considered to be within baseline noise, below the LLOD, and as such are not detectable) | Mean residue, Upper leg [2, 6]: <LLOD (outputs indicating values lower than 2 ng/g are considered to be within baseline noise, below the LLOD, and as such are not detectable) | Mean residue, Breast [2, 7]: <LLOD (outputs indicating values lower than 2 ng/g are considered to be within baseline noise, below the LLOD, and as such are not detectable) | Mean residue, Lower leg [2, 7]: <LLOD (outputs indicating values lower than 2 ng/g are considered to be within baseline noise, below the LLOD, and as such are not detectable) | Mean residue, Upper leg [2, 7]: <LLOD (outputs indicating values lower than 2 ng/g are considered to be within baseline noise, below the LLOD, and as such are not detectable) | Mean residue, Breast [2, 8]: <LLOD (outputs indicating values lower than 2 ng/g are considered to be within baseline noise, below the LLOD, and as such are not detectable) | Mean residue, Lower leg [2, 8]: <LLOD (outputs indicating values lower than 2 ng/g are considered to be within baseline noise, below the LLOD, and as such are not detectable) | Mean residue, Upper leg [2, 8]: <LLOD (outputs indicating values lower than 2 ng/g are considered to be within baseline noise, below the LLOD, and as such are not detectable) | Mean residue, Breast [2, 9]: <LLOD (outputs indicating values lower than 2 ng/g are considered to be within baseline noise, below the LLOD, and as such are not detectable) | Mean residue, Lower leg [2, 9]: <LLOD (outputs indicating values lower than 2 ng/g are considered to be within baseline noise, below the LLOD, and as such are not detectable) | Mean residue, Upper leg [2, 9]: <LLOD (outputs indicating values lower than 2 ng/g are considered to be within baseline noise, below the LLOD, and as such are not detectable) | Mean residue, Breast ([2]; Group 10, 0.3 g/kg IRP001 in feed (0-35 days), 4 days of washout): <LLOD (outputs indicating values lower than 2 ng/g are considered to be within baseline noise, below the LLOD, and as such are not detectable) | Mean residue, Breast [2, 10]: <LLOD (outputs indicating values lower than 2 ng/g are considered to be within baseline noise, below the LLOD, and as such are not detectable) | Mean residue, Lower leg [2, 10]: <LLOD (outputs indicating values lower than 2 ng/g are considered to be within baseline noise, below the LLOD, and as such are not detectable) | Mean residue, Upper leg [2, 10]: <LLOD (outputs indicating values lower than 2 ng/g are considered to be within baseline noise, below the LLOD, and as such are not detectable) | Mean residue, Breast [2, 11]: <LLOD (outputs indicating values lower than 2 ng/g are considered to be within baseline noise, below the LLOD, and as such are not detectable) | Mean residue, Lower leg [2, 11]: <LLOD (outputs indicating values lower than 2 ng/g are considered to be within baseline noise, below the LLOD, and as such are not detectable) | Mean residue, Upper leg [2, 11]: <LLOD (outputs indicating values lower than 2 ng/g are considered to be within baseline noise, below the LLOD, and as such are not detectable) | maximum acceptable residue (lower than one in a million risk of cancer) ([2]; estimated from typical lifetime consumption of chicken meat, breast or leg muscle tissue): 13 ng berberine per gram of chicken meat | Mean residue IRP001, Liver ([2]; 0.03 g/kg IRP001 in feed days 0-28, 14 days of washout, euthanasia day 42): <LLOD (outputs indicating values lower than 2 ng/g are considered to be within baseline noise, below the LLOD, and as such are not detectable) | Mean residue IRP001, Liver ([2]; 0.03 g/kg IRP001 in feed days 0-35, 0 days of washout, euthanasia day 35): <LLOD (outputs indicating values lower than 2 ng/g are considered to be within baseline noise, below the LLOD, and as such are not detectable) | Mean residue IRP001, Liver ([2]; 0.03 g/kg IRP001 in feed days 0-35, 1 day of washout, euthanasia day 36): <LLOD (outputs indicating values lower than 2 ng/g are considered to be within baseline noise, below the LLOD, and as such are not detectable) | Mean residue IRP001, Liver ([2]; 0.03 g/kg IRP001 in feed days 0-35, 2 days of washout, euthanasia day 37): <LLOD (outputs indicating values lower than 2 ng/g are considered to be within baseline noise, below the LLOD, and as such are not detectable) | Mean residue IRP001, Liver ([2]; 0.03 g/kg IRP001 in feed days 0-35, 4 days of washout, euthanasia day 39): <LLOD (outputs indicating values lower than 2 ng/g are considered to be within baseline noise, below the LLOD, and as such are not detectable) | Mean residue IRP001, Liver ([2]; 0.03 g/kg IRP001 in feed days 0-35, 7 days of washout, euthanasia day 42): <LLOD (outputs indicating values lower than 2 ng/g are considered to be within baseline noise, below the LLOD, and as such are not detectable) | MBC (Clostridium Perfringens): 125 µg/mL | MIC (Clostridium Perfringens): 62.5 to 125 µg/mL | inhibition at 125 µg/mL (Clostridium Perfringens; read-out: killing of viable cells): 100% | adverse reaction or unanticipated event ([3]; 1 g berberine in 1 kg of commercial feed over 42 days): no adverse reaction or unanticipated event has been observed | Histology index: Coccidia [3, 12]: 3.2 | Histology index: Cumulative Pathology [3, 12]: 9.6 | Histology index: Enteritis [3, 12]: 6.4 | Histology index: Coccidia ([3]; IRP001 0.5 g/kg in feed, pen 3): 1.6 | Histology index: Cumulative Pathology ([3]; IRP001 0.5 g/kg in feed, pen 3): 7.6 | Histology index: Enteritis ([3]; IRP001 0.5 g/kg in feed, pen 3): 6.0 | Histology index: Coccidia ([3]; IRP001 1 g/kg in feed, pen 4): 1.0 | Histology index: Cumulative Pathology ([3]; IRP001 1 g/kg in feed, pen 4): 9.2 | Histology index: Enteritis ([3]; IRP001 1 g/kg in feed, pen 4): 8.2
